Measured values as given in publication PMC8131363 (Scientific Reports, 2021).
Where two headings read alike, the source gives them in different places.

Tests used:
cCaSR [1] = molecular target: T1, cCaSR (Felis catus, UniProt C7FF08); test: cCaSR PAM luminescence assay, double injection with 0.5 mM CaCl2, HEK293/T-REx/natClytin-cCaSR
T1 sequence (C7FF08 1-1081): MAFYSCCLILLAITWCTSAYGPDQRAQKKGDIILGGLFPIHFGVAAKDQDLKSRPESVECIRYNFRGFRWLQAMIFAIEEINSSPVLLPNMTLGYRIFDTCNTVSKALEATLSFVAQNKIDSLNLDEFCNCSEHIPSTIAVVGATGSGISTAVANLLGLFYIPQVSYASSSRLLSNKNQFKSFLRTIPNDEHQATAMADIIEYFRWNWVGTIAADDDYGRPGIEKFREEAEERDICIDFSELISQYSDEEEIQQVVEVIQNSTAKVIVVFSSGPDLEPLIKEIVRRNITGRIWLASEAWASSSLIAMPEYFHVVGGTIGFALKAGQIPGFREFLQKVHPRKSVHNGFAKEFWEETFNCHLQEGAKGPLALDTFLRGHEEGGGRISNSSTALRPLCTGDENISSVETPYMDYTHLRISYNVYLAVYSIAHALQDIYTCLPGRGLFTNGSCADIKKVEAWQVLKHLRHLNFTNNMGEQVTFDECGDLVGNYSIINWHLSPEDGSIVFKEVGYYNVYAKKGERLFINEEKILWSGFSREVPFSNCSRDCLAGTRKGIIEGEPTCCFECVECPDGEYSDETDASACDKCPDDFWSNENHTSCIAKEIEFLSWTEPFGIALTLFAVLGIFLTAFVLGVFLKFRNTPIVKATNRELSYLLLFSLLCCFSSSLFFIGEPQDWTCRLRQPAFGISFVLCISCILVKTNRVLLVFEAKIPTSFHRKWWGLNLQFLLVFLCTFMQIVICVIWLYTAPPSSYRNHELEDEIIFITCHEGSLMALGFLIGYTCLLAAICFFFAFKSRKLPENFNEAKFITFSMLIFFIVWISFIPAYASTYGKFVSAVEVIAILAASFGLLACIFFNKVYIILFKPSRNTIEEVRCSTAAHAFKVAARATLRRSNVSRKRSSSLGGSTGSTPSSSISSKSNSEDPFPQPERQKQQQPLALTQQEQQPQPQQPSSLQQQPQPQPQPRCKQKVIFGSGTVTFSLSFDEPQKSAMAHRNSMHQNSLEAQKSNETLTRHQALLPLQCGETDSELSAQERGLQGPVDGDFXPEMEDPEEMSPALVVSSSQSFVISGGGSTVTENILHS

cCaSR [2] = molecular target: T1, cCaSR
[3] = read-out: EC50 PAM, Supplementary Table I, positive allosteric modulator, presence of Ca2+
[4] = Supplementary Table I, agonist assay, dash = no activity
[5] = Supplementary Table I, PAM assay, dash = no activity
[6] = read-out: cCaSR activity, agonist assay, stable inducible cCaSR line, at least three wells
[7] = agonist assay, stable inducible cCaSR line, > 0.01 M = maximal response not reached
[8] = read-out: EC50 Ago, Supplementary Table I, agonist assay, > 0.01 M = maximal response not reached

Row | Compound | EC50 Ago (M) (cCaSR [2]; [4]) | EC50 PAM (M) (cCaSR [1]; [5]) | other results
1 | COC(=O)C(NC1CCc2c(F)cccc21)c1cccc(C#N)c1 (stereo not shown) [Enamine Screening - Z1362199910] | - |  | EC50 (cCaSR [1]; [3]): 58.9 µM
2 | N[C@H](CC(=O)O)C(=O)O [D-Aspartic Acid] | - | - | 
3 | NC[C@H]1O[C@H](O[C@H]2[C@H](O)[C@@H](O[C@H]3O[C@H](CO)[C@@H](O)[C@H](N)[C@H]3O)[C@H](N)C[C@@H]2N)[C@H](O)[C@@H](O)[C@@H]1O [Kanamycin solution, Kanamycin, reference compound] | - | - | 
4 | NCCCNCCCCNCCCN [Spermine] |  | - | agonist activity on cCaSR (in words) (cCaSR [2]): agonists
5 | NCCNCCCNCCN [N,N'-Bis(2-aminoethyl)-1,3-propanediamine] |  |  | EC50 PAM (M) (cCaSR [1]): -; EC50 Ago (M) (cCaSR [2]): -
6 | N=C(N)NCCC[C@H](N)C(=O)O [L-Arginine] |  |  | EC50 PAM (M) (cCaSR [1]): -; EC50 Ago (M) (cCaSR [2]): -
7 | CC(NCC1CCCN(C)C1c1cccs1)c1cc(Cl)c(N)c(Cl)c1 (stereo not shown) [Enamine Screening - Z1532507755] | - |  | EC50 (cCaSR [1]; [3]): 8.68 µM
8 | CC1(C)N[C@H](C(=O)O)Cc2c1[nH]c1ccccc21 [S-1,1-dimethyl-2,3,4,9-tetrahydro-1H-pyrido[3,4-b]indole-3-carboxylic acid] | - | - | 
9 | N[C@@H](CSSC[C@H](N)C(=O)O)C(=O)O [Cystine (disufide)] | - | - | 
10 | N[C@@H](Cc1ccc(O)cc1)C(=O)O [L-Tyrosine] | - | - | 
11 | C[C@@H](NCCCc1cccc(C(F)(F)F)c1)c1cccc2ccccc12 [Cinacalcet, reference compound] | - |  | EC50 (cCaSR [1]): 0.746 µM
12 | OC[C@H]1OC(O)[C@H](O)[C@@H](O)[C@@H]1O (stereo partly drawn) [D-( +)-Glucose, D-(+)-Glucose] | - | - | 
13 | COC(=O)[C@@H](N)CCCNC(N)=N[N+](=O)[O-] [NG-Nitro-L-Arginine Methyl Ester] | - | - | 
14 | CC(NC1CCc2c(F)cc(Br)cc21)c1ccncc1 (stereo not shown) [Enamine Screening - Z1436888168] | - |  | EC50 (cCaSR [1]; [3]): 45.7 µM
15 | NCCS(=O)(=O)O [Taurine] | - | - | 
16 | Poly-L-lysine |  | - | EC50 (cCaSR [2]; [6]): > 10000 µM
17 | NC[C@H](N)C(=O)O [S-2,3-diaminopropanoic acid] | - | - | 
18 | CNC(=N)NCCC[C@H](N)C(=O)O [NG-methyl L Arginine] | - | - | 
19 | NCCC[C@H](N)C(=O)O [L-Ornithine] | - | - | 
20 | CC(C)C[C@H](N)C(=O)O [L-Leucine] | - | - | 
21 | NC(=O)C[C@H](N)C(=O)O [L-Asparagine] | - | - | 
22 | N[C@@H](CS)C(=O)O [L-Cysteine] | - | - | 
23 | COc1ccc(C2C(CNC(C)c3ccncc3)CCN2C)cc1 (stereo not shown) [Enamine Screening - Z1563602968] | - | - | 

Row | Compound | EC50 Ago (M) (cCaSR [2]; [4]) | EC50 PAM (M) (cCaSR [1]; [5]) | other results
24 | [Gd+3] [Gd^3+, Gadolinium ion Gd^3+] |  | - | EC50 (cCaSR [2]; [7]): 295 µM; EC50 (cCaSR [2]; [8]): 295 µM; EC50 (cCaSR [2]; [6]): < 1000 µM
25 | COc1ccc(CCC(C)NC2CCOc3ccccc32)cc1O (stereo not shown) [Enamine Screening - Z1857407854] | - |  | EC50 (cCaSR [1]; [3]): 5.5 µM
26 | CC(C)[C@H](N)C(=O)O [L-Valine] | - | - | 
27 | C[C@](N)(CC(=O)O)C(=O)O [(S)-a-Methylaspartic acid, (S)-α-Methylaspartic acid] | - | - | 
28 | CCOC(=O)CNC(=O)[C@H](CS)NC(=O)CC[C@H](N)C(=O)O [γ-Glu-Cys-Gly-Oet] | - | - | 
29 | N[C@@H](Cc1c[nH]cn1)C(=O)O [L-Histidine] | - | - | 
30 | O.O.O.O.O.O.O.O.O.O.O=P([O-])([O-])OP(=O)([O-])[O-].[Na+].[Na+].[Na+].[Na+] [Sodium pyrophosphate tetrabasic decahydrate] | - | - | 
31 | O=P(O)(O)CP(=O)(O)O [Methylenediphosphonic acid] |  | - | EC50 (cCaSR [2]; [7]): 1290 µM; EC50 (cCaSR [2]; [8]): 1290 µM
32 | COC(=O)CC[C@H](N)C(=O)O [L-Glutamic Acid 5-Methyl Ester] | - | - | 
33 | COC(=O)[C@@H](N)CCCN=C(N)N [L-Arginine methyl ester] | - | - | 
34 | NCCCC[C@H](NC(=O)C[C@H](N)C(=O)O)C(=O)O [β-Asp-Lys] | - | - | 
35 | C[C@H](N)C(=O)O [L-Alanine] | - | - | 
36 | NCCCC[C@@H](N)C(=O)O [D-Lysine] | - | - | 
37 | Cc1ccc(C(C)NC(C)c2cc3ccccc3[nH]2)cc1C (stereo not shown) [Enamine Screening - Z1592615858] | - |  | EC50 (cCaSR [1]; [3]): 1.92 µM
38 | OC[C@H]1O[C@@](CO)(O[C@H]2O[C@H](CO)[C@@H](O)[C@H](O)[C@H]2O)[C@@H](O)[C@@H]1O [Sucrose] | - | - | 
39 | COc1c(C)cc(C(=O)CC#N)cc1C [3,5-Dimethyl-4-methoxybenzoylacetonitrile] | - | - | 
40 | CC(C)(Cc1ccc2ccccc2c1)NC[C@@H](O)COc1cccc(Cl)c1C#N [NPS 2143, reference compound] | - | - | 
41 | O=S(=O)([O-])C(F)(F)F.O=S(=O)([O-])C(F)(F)F.O=S(=O)([O-])C(F)(F)F.[Pr+3] [Pr^3+, Praseodymium(III) trifluoromethanesulfonate] |  | - | EC50 (cCaSR [2]; [7]): 398 µM; EC50 (cCaSR [2]; [8]): 398 µM; EC50 (cCaSR [2]; [6]): < 1000 µM
42 | O=C([O-])[O-].O=C([O-])[O-].O=C([O-])[O-].[Ce+3].[Ce+3] [Cerium(III) carbonate] | - | - | 
43 | NC(N)=NCCC[C@@H](N)C(=O)O [D-Arginine] | - | - | 
44 | C1N2CN3CN1CN(C2)C3 [Hexamethylenetetramine] | - | - | 
45 | Poly-L-histidine | - | - | 
46 | CN(C)C(N)=NCCC[C@H](N)C(=O)O.Cl.Cl [NG,NG-Dimethylarginine dihydrochloride] | - | - | 
